Columns and labels:
[1] = system: LPS-induced TNF-α production; assay: Rat LPS-induced TNF-α production; format: in vivo, Wistar female rats; details: in Rat
Experimental: [Rat LPS-Induced TNF-α Production]
Seven weeks old Wistar female rats were used. One mg of LPS (lypopolysaccharide) dissolved in phosphate buffer saline (pH 7.4) was administered intraperitoneally (i.p.) to rats. Compounds were given orally 60 minutes prior to the LPS injection. Under anesthesia with pentobarbital (80 mg/kg, i.p.), blood was collected from the posterior venous cavity of the rats 120 minutes post-LPS injection and added into 96-well plate containing 2% EDTA solution. The plasma was separated by centrifugation at 1800 rpm for 10 minutes at 4° C. and then diluted with four times volumes of phosphate buffer saline (H 7.4) containing 1% bovine serum albumin. TNF-α concentration in the sample was determined using an ELISA kit (Endogen, Boston, Mass.).
The mean TNF-α level in 7-8 rats from each group was determined and the percent reduction in TNF-α levels was calculated.

[2] = cellular assays (not further specified); format: cell-based
Experimental: [The Measurement of RANTES Production in Response to TNF-α from A549 cells]
(1) Preparation of A549 Cells
• The A549 human lung epithelium cell line (ATCC […]) was maintained in Dulbecco's modified Eagle's medium (D-MEM, Nikken Biomedical Institute) supplemented with 10% FCS (Gibco), 100 U/ml penicillin, 100 μg/ml streptomycin, and 2 mM glutamine (culture medium). Forty thousand (4×10^4) cells (80 μl/well) were seeded in each well of 96 well flat-bottom tissue culture plate (Falcon #3072). The plate was allowed to stand for 2 hrs, thus the cells were adhered to the bottom of each well. To the each well was added 10 μl vehicle (1% DMSO), serial dilutions of test compounds in 1% DMSO, or 5 nM Dexamethasone in 1% DMSO as a reference. The mixture (90 μl/well) was incubated for 1 hr at 37° C. After 1 hr, 1 μg/ml TNF-α (10 μl) in culture medium was added to the mixture to obtain 100 μl of reaction mixture. The reaction mixture was cultured for 24 hrs to stimulate the cells with 100 ng/ml TNF-α. […] (2) Measurement of RANTES Production • Then the concentration of RANTES released from the cells in the supernatants of each well was determined using a quantitative sandwich enzyme immunoassay technique. […] Fluorescent intensity was measured using a DELFIA fluorimeter (Wallac). Excitation was performed at 340 nm and emission was measured at 615 nm. […]

Structure (SMILES): O=C1Nc2nc(-c3c(O)cccc3OCC3CC3)cc([C@@H]3CCCNC3)c2CO1 [the compound of the present invention, (−)-7-[2-(cyclopropylmethoxy)-6-hydroxy-phenyl]-5-[(3S)-3-piperidinyl]-1,4-hydro-2H-pyrido [2,3-d][1,3]oxazin-2-one]
- anti-inflammatory activity compared with corresponding racemic modification [1]: twice as strong as corresponding racemic modification
- mutagenicity according to the Ames-Test Screening (Ames-Test Screening): non-mutagenic
- cellular activity compared with corresponding racemic modification [2]: twice as strong as corresponding racemic modification
